According to PMC5218480 (PLoS ONE, 2017):

Test system: MV-4-11 cells
Test: Gene expression microarray analysis (Affymetrix PrimeView) and GSEA
Type: cell-based, human
Set-up: RFU PODN (11730768_x_at) / Fold change /veh PODN (11730768_x_at) / RFU LINC00158 (11744669_a_at) / Fold change /veh LINC00158 (11744669_a_at) / RFU DUSP10 (11751237_a_at) / Fold change /veh DUSP10 (11751237_a_at) / RFU ID3 (11757404_x_at) / Fold change /veh ID3 (11757404_x_at) / RFU PLEKHG5 (11737974_s_at) / Fold change /veh PLEKHG5 (11737974_s_at) / RFU LRRC4B (11730491_at) / Fold change /veh LRRC4B (11730491_at) / RFU GIMAP4 (11747438_a_at) / Fold change /veh GIMAP4 (11747438_a_at) / RFU KRT8 (11758183_x_at) / Fold change /veh KRT8 (11758183_x_at) / RFU CNN1 (11734310_a_at) / Fold change /veh CNN1 (11734310_a_at) / RFU VPS37D (11726825_at) / Fold change /veh VPS37D (11726825_at) / RFU C10orf10 (11716522_x_at) / Fold change /veh C10orf10 (11716522_x_at) / RFU KIR2DL2 /// KIR2DL4 /// KIR2DL5A /// KIR2DL5B /// KIR2DS1 /// KIR2DS2 /// KIR2DS3 /// KIR2DS4 /// KIR3DL3 /// KIR3DL3 /// KIR3DS1 (11738374_at) / Fold change /veh KIR2DL2 /// KIR2DL4 /// KIR2DL5A /// KIR2DL5B /// KIR2DS1 /// KIR2DS2 /// KIR2DS3 /// KIR2DS4 /// KIR3DL3 /// KIR3DL3 /// KIR3DS1 (11738374_at) / RFU C1QL1 (11718748_at) / Fold change /veh C1QL1 (11718748_at) / RFU TMPRSS4 (11747572_a_at) / Fold change /veh TMPRSS4 (11747572_a_at) / RFU HAMP (11756126_x_at) / Fold change /veh HAMP (11756126_x_at) / RFU RNFT2 (11725882_a_at) / Fold change /veh RNFT2 (11725882_a_at) / RFU NR4A2 (11747474_a_at) / Fold change /veh NR4A2 (11747474_a_at) / RFU ABCC12 (11746883_a_at) / Fold change /veh ABCC12 (11746883_a_at) / RFU TMEM136 (11760407_x_at) / Fold change /veh TMEM136 (11760407_x_at) / RFU CLDN22 /// WWC2 (11732394_at) / Fold change /veh CLDN22 /// WWC2 (11732394_at) / RFU HLA-DPB1 (11760878_x_at) / Fold change /veh HLA-DPB1 (11760878_x_at) / RFU SPINT1 (11716480_a_at) / Fold change /veh SPINT1 (11716480_a_at) / RFU GAP43 (11754022_s_at) / Fold change /veh GAP43 (11754022_s_at) / RFU A4GNT (11735810_at) / Fold change /veh A4GNT (11735810_at) / RFU PRB3 (11715151_x_at) / Fold change /veh PRB3 (11715151_x_at) / RFU TUBB4B (11761932_at) / Fold change /veh TUBB4B (11761932_at) / RFU CAPN14 (11732068_a_at) / Fold change /veh CAPN14 (11732068_a_at) / RFU TMCC2 (11721928_a_at) / Fold change /veh TMCC2 (11721928_a_at) / RFU IRGQ (11745062_a_at) / Fold change /veh IRGQ (11745062_a_at) / RFU FAM174B (11720279_a_at) / Fold change /veh FAM174B (11720279_a_at) / RFU TMPRSS4 (11748680_a_at) / Fold change /veh TMPRSS4 (11748680_a_at) / RFU FAM212B (11763350_a_at) / Fold change /veh FAM212B (11763350_a_at) / RFU PLEKHG5 (11743358_a_at) / Fold change /veh PLEKHG5 (11743358_a_at) / RFU ZSCAN30 (11745921_a_at) / Fold change /veh ZSCAN30 (11745921_a_at) / RFU CMKLR1 (11741424_a_at) / Fold change /veh CMKLR1 (11741424_a_at) / RFU LOC101060620 /// MAPK8IP1 (11723275_at) / Fold change /veh LOC101060620 /// MAPK8IP1 (11723275_at) / RFU SPTSSB (11747773_x_at) / Fold change /veh SPTSSB (11747773_x_at) / RFU PRSS12 (11739890_at) / Fold change /veh PRSS12 (11739890_at) / RFU BIN1 (11741810_x_at) / Fold change /veh BIN1 (11741810_x_at) / RFU WNT11 (11732464_a_at) / Fold change /veh WNT11 (11732464_a_at) / RFU C10orf10 (11716521_a_at) / Fold change /veh C10orf10 (11716521_a_at) / RFU C5orf56 (11738089_at) / Fold change /veh C5orf56 (11738089_at) / RFU CYB561 (11721691_x_at) / Fold change /veh CYB561 (11721691_x_at) / RFU ANKRD19P (11752326_a_at) / Fold change /veh ANKRD19P (11752326_a_at) / RFU OR2T12 /// OR2T33 /// OR2T8 (11738714_s_at) / Fold change /veh OR2T12 /// OR2T33 /// OR2T8 (11738714_s_at) / RFU VCAN (11748164_a_at) / Fold change /veh VCAN (11748164_a_at) / RFU JSRP1 (11732532_at) / Fold change /veh JSRP1 (11732532_at) / RFU KRTAP10-11 (11738290_x_at) / Fold change /veh KRTAP10-11 (11738290_x_at) / RFU MYO3A (11730013_a_at) / Fold change /veh MYO3A (11730013_a_at) / RFU EBF3 (11725865_a_at) / Fold change /veh EBF3 (11725865_a_at) / RFU CAMK2N1 (11719241_x_at) / Fold change /veh CAMK2N1 (11719241_x_at) / RFU C5orf56 (11738088_a_at) / Fold change /veh C5orf56 (11738088_a_at) / RFU OLFML3 (11715873_a_at) / Fold change /veh OLFML3 (11715873_a_at) / RFU LOC100653217 /// NTM (11731650_a_at) / Fold change /veh LOC100653217 /// NTM (11731650_a_at) / RFU MAPK11 (11762145_a_at) / Fold change /veh MAPK11 (11762145_a_at) / RFU FIZ1 (11724087_x_at) / Fold change /veh FIZ1 (11724087_x_at) / RFU OASL (11726364_x_at) / Fold change /veh OASL (11726364_x_at) / RFU SOX15 (11748057_x_at) / Fold change /veh SOX15 (11748057_x_at) / RFU CD79A (11719716_a_at) / Fold change /veh CD79A (11719716_a_at) / RFU HIST1H1D (11736915_at) / Fold change /veh HIST1H1D (11736915_at) / RFU CASKIN2 (11723855_a_at) / Fold change /veh CASKIN2 (11723855_a_at) / RFU LOC730098 (11760151_x_at) / Fold change /veh LOC730098 (11760151_x_at) / RFU OR4N2 (11742367_at) / Fold change /veh OR4N2 (11742367_at) / RFU PRRT2 (11749266_a_at) / Fold change /veh PRRT2 (11749266_a_at) / RFU SNX32 (11753110_a_at) / Fold change /veh SNX32 (11753110_a_at) / RFU CDHR5 (11726645_a_at) / Fold change /veh CDHR5 (11726645_a_at) / RFU RCAN1 (11760418_a_at) / Fold change /veh RCAN1 (11760418_a_at) / RFU FAM167A (11723789_a_at) / Fold change /veh FAM167A (11723789_a_at) / RFU FAM26E (11764081_at) / Fold change /veh FAM26E (11764081_at) / RFU ISYNA1 (11749810_s_at) / Fold change /veh ISYNA1 (11749810_s_at) / RFU ACY1 (11761880_at) / Fold change /veh ACY1 (11761880_at) / RFU 11764098_at / Fold change /veh 11764098_at / RFU SAMD14 (11745864_x_at) / Fold change /veh SAMD14 (11745864_x_at) / RFU NPB (11741838_a_at) / Fold change /veh NPB (11741838_a_at) / RFU TMPRSS6 (11731388_a_at) / Fold change /veh TMPRSS6 (11731388_a_at) / RFU KRTAP10-2 (11738614_at) / Fold change /veh KRTAP10-2 (11738614_at) / RFU ARHGAP8 /// PRR5-ARHGAP8 (11727945_x_at) / Fold change /veh ARHGAP8 /// PRR5-ARHGAP8 (11727945_x_at) / RFU KRTAP5-7 /// NADSYN1 (11734609_at) / Fold change /veh KRTAP5-7 /// NADSYN1 (11734609_at) / RFU RASL12 (11751679_a_at) / Fold change /veh RASL12 (11751679_a_at) / RFU CDKN2B (11736163_a_at) / Fold change /veh CDKN2B (11736163_a_at) / RFU PRF1 (11729649_at) / Fold change /veh PRF1 (11729649_at) / RFU, ZNF638 /// ZNF638-IT1 / Fold change vs veh, ZNF638 /// ZNF638-IT1 / RFU, PANK3 / Fold change vs veh, PANK3 / RFU, SH3YL1 / Fold change vs veh, SH3YL1 / RFU, ZEB2 / Fold change vs veh, ZEB2 / RFU, NRIP1 / Fold change vs veh, NRIP1 / RFU, PTTG1IP / Fold change vs veh, PTTG1IP / RFU, CAPN2 / Fold change vs veh, CAPN2 / RFU, MED14 / Fold change vs veh, MED14 / RFU, SNORA58 / Fold change vs veh, SNORA58 / RFU, C1orf63 / Fold change vs veh, C1orf63 / RFU, LRRFIP1 / Fold change vs veh, LRRFIP1 / RFU, NDUFAF7 / Fold change vs veh, NDUFAF7 / RFU, SLC12A2 / Fold change vs veh, SLC12A2 / RFU, IBTK / Fold change vs veh, IBTK / RFU, ESF1 / Fold change vs veh, ESF1 / Fold change vs veh, TMEM50B / RFU, TAOK1 / Fold change vs veh, TAOK1 / RFU, ACBD3 / Fold change vs veh, ACBD3 / RFU, TMA16 / Fold change vs veh, TMA16 / RFU, RWDD3 / Fold change vs veh, RWDD3 / RFU, BCAT1 / Fold change vs veh, BCAT1 / RFU, EDEM3 / Fold change vs veh, EDEM3 / RFU, TMEM33 / Fold change vs veh, TMEM33 / RFU, WDR75 / Fold change vs veh, WDR75 / RFU, AHCTF1 / Fold change vs veh, AHCTF1 / RFU, TFRC / Fold change vs veh, TFRC / RFU, ZDHHC17 / Fold change vs veh, ZDHHC17 / RFU, NOM1 / Fold change vs veh, NOM1 / RFU, ARL8B / Fold change vs veh, ARL8B / RFU, ZBTB11 / Fold change vs veh, ZBTB11 / RFU, TAMM41 / Fold change vs veh, TAMM41 / RFU, KIAA1704 /// LOC100996395 / Fold change vs veh, KIAA1704 /// LOC100996395 / RFU, ING1 / Fold change vs veh, ING1 / RFU, TRMT61B / Fold change vs veh, TRMT61B / RFU, FUBP3 / Fold change vs veh, FUBP3 / RFU, TP53 / Fold change vs veh, TP53 / RFU, TNKS2 / Fold change vs veh, TNKS2 / RFU, ZFP14 / Fold change vs veh, ZFP14 / RFU, ACTR2 / Fold change vs veh, ACTR2 / RFU, PPP3R1 / Fold change vs veh, PPP3R1 / RFU, PIK3R1 / Fold change vs veh, PIK3R1 / RFU, HNRNPA1 / Fold change vs veh, HNRNPA1 / RFU, RNF170 / Fold change vs veh, RNF170 / RFU, ZNF28 / Fold change vs veh, ZNF28 / RFU, RNGTT / Fold change vs veh, RNGTT / RFU, OGT / Fold change vs veh, OGT / RFU, BRD1 / Fold change vs veh, BRD1 / RFU, MARS / Fold change vs veh, MARS / RFU, ZNF655 / Fold change vs veh, ZNF655 / RFU, FAHD1 / Fold change vs veh, FAHD1 / RFU, BDP1 / Fold change vs veh, BDP1 / RFU, LRRCC1 / Fold change vs veh, LRRCC1 / RFU, ARID1A / Fold change vs veh, ARID1A / RFU, ZNF146 / Fold change vs veh, ZNF146 / RFU, ZNF330 / Fold change vs veh, ZNF330 / RFU, GPN3 / Fold change vs veh, GPN3 / RFU, C9orf123 / Fold change vs veh, C9orf123 / RFU, N4BP2L2 / Fold change vs veh, N4BP2L2 / RFU, ARFIP1 / Fold change vs veh, ARFIP1 / RFU, FAM179B / Fold change vs veh, FAM179B / RFU, BCL10 / Fold change vs veh, BCL10 / RFU, UHRF1BP1L / Fold change vs veh, UHRF1BP1L / RFU, BET1 / Fold change vs veh, BET1 / RFU, CNOT2 / Fold change vs veh, CNOT2 / RFU, ZNF268 / Fold change vs veh, ZNF268 / Fold change vs veh, ZNF507 / RFU, DGCR2 / Fold change vs veh, DGCR2 / RFU, WDSUB1 / Fold change vs veh, WDSUB1 / Fold change vs veh, HSP90B1 /// MIR3652 / RFU, ADSS / Fold change vs veh, ADSS / RFU, GK / Fold change vs veh, GK / RFU, ZNF148 / Fold change vs veh, ZNF148 / RFU, TAF9 / Fold change vs veh, TAF9 / RFU, SLC1A5 / Fold change vs veh, SLC1A5 / RFU, SLMO2 / Fold change vs veh, SLMO2 / RFU, ABCC4 / Fold change vs veh, ABCC4 / RFU, LOC101060439 /// RAP1B / Fold change vs veh, LOC101060439 /// RAP1B / RFU, RFX7 / Fold change vs veh, RFX7 / RFU, GTPBP10 / Fold change vs veh, GTPBP10 / RFU, CNEP1R1 / Fold change vs veh, CNEP1R1 / RFU, BIVM-ERCC5 /// ERCC5 / Fold change vs veh, BIVM-ERCC5 /// ERCC5 / RFU, ILF3 / Fold change vs veh, ILF3 / RFU 11762660_at / Fold change /veh 11762660_at / RFU VCAN (11757783_s_at) / Fold change /veh VCAN (11757783_s_at) / RFU DDX43 (11728927_at) / Fold change /veh DDX43 (11728927_at) / RFU KRT8 (11758188_x_at) / Fold change /veh KRT8 (11758188_x_at) / RFU NKD1 (11759106_at) / Fold change /veh NKD1 (11759106_at) / RFU SRD5A1 (11742802_a_at) / Fold change /veh SRD5A1 (11742802_a_at) / RFU TPSAB1 /// TPSB2 (11721975_s_at) / Fold change /veh TPSAB1 /// TPSB2 (11721975_s_at) / RFU GSTM3 (11746129_a_at) / Fold change /veh GSTM3 (11746129_a_at) / RFU IL23R (11737362_x_at) / Fold change /veh IL23R (11737362_x_at) / RFU TMEM51 (11727254_a_at) / Fold change /veh TMEM51 (11727254_a_at) / RFU PIWIL2 (11732686_x_at) / Fold change /veh PIWIL2 (11732686_x_at) / RFU ORM1 (11744905_x_at) / Fold change /veh ORM1 (11744905_x_at) / RFU CCDC152 (11743942_at) / Fold change /veh CCDC152 (11743942_at) / RFU ECM1 (11717891_a_at) / Fold change /veh ECM1 (11717891_a_at) / RFU IL23R (11748794_a_at) / Fold change /veh IL23R (11748794_a_at) / RFU TNFAIP8L3 (11732012_x_at) / Fold change /veh TNFAIP8L3 (11732012_x_at) / RFU MBOAT4 (11741988_at) / Fold change /veh MBOAT4 (11741988_at) / RFU 11764193_at / Fold change /veh 11764193_at / RFU TMEM53 (11763286_at) / Fold change /veh TMEM53 (11763286_at) / RFU MAGEB2 (11727129_at) / Fold change /veh MAGEB2 (11727129_at) / RFU TMEM200A (11744735_a_at) / Fold change /veh TMEM200A (11744735_a_at) / RFU CCDC152 (11751479_a_at) / Fold change /veh CCDC152 (11751479_a_at) / RFU FAM211A (11726209_a_at) / Fold change /veh FAM211A (11726209_a_at) / RFU RGS16 (11746705_a_at) / Fold change /veh RGS16 (11746705_a_at) / RFU VCAN (11755009_s_at) / Fold change /veh VCAN (11755009_s_at) / RFU RHOB (11743442_s_at) / Fold change /veh RHOB (11743442_s_at) / RFU RGS16 (11720943_a_at) / Fold change /veh RGS16 (11720943_a_at) / RFU RGS16 (11720944_at) / Fold change /veh RGS16 (11720944_at) / RFU, VPS4B / Fold change vs veh, VPS4B / RFU, CREB1 / Fold change vs veh, CREB1 / RFU, DNAJC13 / Fold change vs veh, DNAJC13 / RFU, GNAQ / Fold change vs veh, GNAQ / RFU, CDK5R1 / Fold change vs veh, CDK5R1 / RFU, ZRANB3 / Fold change vs veh, ZRANB3 / RFU, CUL4A / Fold change vs veh, CUL4A / RFU, CCNY / Fold change vs veh, CCNY / RFU, UFL1 / Fold change vs veh, UFL1 / RFU, COG3 / Fold change vs veh, COG3 / RFU, DIAPH2 / Fold change vs veh, DIAPH2 / RFU, SKA2 / Fold change vs veh, SKA2 / RFU, AFF3 / Fold change vs veh, AFF3 / RFU, LMF1 / Fold change vs veh, LMF1 / RFU, IPO11 / Fold change vs veh, IPO11 / RFU, DFFB / Fold change vs veh, DFFB / RFU, FOXP1 / Fold change vs veh, FOXP1 / RFU, CARD8 / Fold change vs veh, CARD8 / RFU, STRN3 / Fold change vs veh, STRN3 / RFU, ADK / Fold change vs veh, ADK / RFU, RASSF2 / Fold change vs veh, RASSF2 / RFU, WIPF1 / Fold change vs veh, WIPF1 / RFU, LARP1B / Fold change vs veh, LARP1B / RFU, RASA1 / Fold change vs veh, RASA1 / RFU, RB1 / Fold change vs veh, RB1 / RFU, PPFIA1 / Fold change vs veh, PPFIA1 / RFU, MAT2A / Fold change vs veh, MAT2A / RFU, CCT5 / Fold change vs veh, CCT5 / RFU, WDR92 / Fold change vs veh, WDR92 / RFU, CUX1 / Fold change vs veh, CUX1 / RFU, TTC7A / Fold change vs veh, TTC7A / RFU, TMEM135 / Fold change vs veh, TMEM135 / RFU, DEPTOR / Fold change vs veh, DEPTOR / RFU, CPM / Fold change vs veh, CPM / RFU, DNAJB6 / Fold change vs veh, DNAJB6 / RFU, CACNA2D3 / Fold change vs veh, CACNA2D3 / RFU, DTX4 / Fold change vs veh, DTX4 / RFU, TFCP2 / Fold change vs veh, TFCP2 / RFU, GMCL1 /// GMCL1P1 / Fold change vs veh, GMCL1 /// GMCL1P1 / RFU, AEBP2 / Fold change vs veh, AEBP2 / RFU, SNHG1 /// SNORD22 /// SNORD25 /// SNORD26 /// SNORD27 /// SNORD28 /// SNORD29 /// SNORD31 / Fold change vs veh, SNHG1 /// SNORD22 /// SNORD25 /// SNORD26 /// SNORD27 /// SNORD28 /// SNORD29 /// SNORD31 / Fold change (Aza/veh), C12orf56 (ProbeSet 11735607_a_at) / Fold change (ACY-1035/veh), C12orf56 (ProbeSet 11735607_a_at) / Fold change (Aza/veh), FGFR1OP (ProbeSet 11751329_s_at) / Fold change (ACY-1035/veh), FGFR1OP (ProbeSet 11751329_s_at) / Fold change (Aza/veh), VPS36 (ProbeSet 11739960_a_at) / Fold change (ACY-1035/veh), VPS36 (ProbeSet 11739960_a_at) / RFU SYPL1 (11715823_x_at) / Fold change /veh SYPL1 (11715823_x_at) / RFU IGFBP7 (11715501_s_at) / Fold change /veh IGFBP7 (11715501_s_at) / RFU REEP3 (11722064_at) / Fold change /veh REEP3 (11722064_at) / RFU IGLL1 (11728026_x_at) / Fold change /veh IGLL1 (11728026_x_at): dose or concentration left out as unconfirmed
Settings: MV-4-11 cells, 48 hours

## Nc1ccc(-c2cccs2)cc1NC(=O)c1ccc2c(c1)cc(C1CC1)n2CCN1CCOCC1 [ACY-1035]
  Fold change /veh ACY1 (11761880_at): 1.19
